Assay [1] relates to necrotizing enterocolitis in neonatal rats. The assay is described as follows: Necrotizing enterocolitis neonatal rat model. It is filed as in vivo, Sprague-Dawley rats. To be noted: formula containing 300 μg/mL glycan; for mean ileum pathology score (0: healthy; 4: complete destruction): oral gavage twice daily, 96 hours, mean±standard deviation. As to the method:
Rat studies. The efficacy of the synthesized glycans against necrotizing enterocolitis was tested in the same neonatal rat model as previously described for DSLNT. Briefly, pregnant time-dated Sprague-Dawley rats were induced at term and immediately randomized into one of the different study groups. Animals in the dam-fed group (DF) remained with the dam. All other animals were separated from the dam, housed in a temperature- and humidity-controlled incubator and orally gavaged with a special rodent formula (0.2 mL) twice daily. All animals, dam-fed and gavaged, were exposed to 10 min of hypoxia (5% O2, 95% N2) thrice daily in a modular chamber. All animals were sacrificed 96 hours post-partum, and 0.5 cm of the terminal ileum prepared for H&E staining per standard protocols and scored blindly based on morphological changes that included epithelial sloughing, villus edema, infiltration of neutrophils, apoptosis of villus enterocytes, crypt hyperplasia and misaligned nuclei in the epithelium. If at least one pathology sign was observed, a score of 0.5-1.5 was assigned depending on severity. […] The maximum score of 4 was given in case of complete obliteration of the epithelium with or without intestinal perforation. Pathology scores were plotted for each animal and the mean calculated per group. Differences between the groups were calculated by 1 way ANOVA with Kruskal-Wallis test and Dunn's Multiple Comparison test. Significance was defined as a P value of less than 0.05.

For assay [2], the target named is T1, AtGlcAK (Arabidopsis thaliana, UniProt Q93ZC9, I297M).
T1 construct: made in house; host or cells: E. coli BL21 (DE3)
Briefly: AtGlcAK substrate specificity by TLC and LC-MS. To be noted: sugar 10 mM, ATP 20 mM, AtGlcAK 22 μg, 37° C., 15 hr. Type of assay: biochemical. On the procedure:
Substrates specificity assays by thin-layer chromatography (TLC). […] For visualizing compounds on TLC plate, p-anisaldehyde sugar stain was used.
LC-MS assays for AtGlcAK reactions. The AtGlcAK reaction mixtures above were also analyzed by LC-MS. 2 μL of sample was diluted 100 fold and 8 μL was injected into a Waters spherisorb ODS-2 column (5 μm particles, 250 mm length, 4.6 mm I.D.). The sample was eluted with 30% acetonitrile in H2O with 0.1% formic acid and detected by ESI-MS in negative mode.

For assay [3], the target named is T1, AtGlcAK. The assay is described as follows: AtGlcAK substrate specificity CE assay. It is filed as biochemical. As to the method:
Substrate specificity assays. […] The reactions were quenched and assayed with the same method as those for pH profile. All reactions were performed in duplicates.

For assay [4], the system named is necrotizing enterocolitis in neonatal rats. As to conditions: previously reported; cited from earlier work.
The target in assay [5] is T2, human FGF-1 (Homo sapiens, UniProt P05230).
T2 construct: purchased PeproTech Inc (Rocky Hill, N.J.)
Briefly: Inhibition of FGF-1 binding to immobilized heparin-biotin. As to conditions: compound 1 mM; FGF 1 μM. An excerpt:
(§1) Materials. Recombinant human fibroblast growth factors FGF-1, FGF-2, FGF-4, and anti-human FGF-1, FGF-2, FGF-4 were purchased from PeproTech Inc (Rocky Hill, N.J.). Heparin-biotin was from Sigma (St. Louis, Mo.). Low molecular weight heparin (LMWH) was bought from AMS Biotechnology (Lake Forest, Calif.). Alexa Fluor® 488 goat anti-rabbit IgG (H+L) was from Invitrogen (Carlsbad, Calif.). 384-Well NeutrAvidin-coated plates for the sialidase assays were from Fisher Biotech.
(§2) Methods. All assays were carried out in duplicate in 384-well NeutrAvidin coated plates. Heparin-biotin (20 μL, 2 μM) was added to each well and the plate was incubated at 4° C. for overnight. The plate was washed with 3 rounds of 1×PBS buffer containing 0.05% Tween-20 and blocked with 1% BSA (50 μL for each well) and incubated at r.t. for 30 min. After the plate was washed three times with 1×PBS buffer containing 0.05% Tween-20, each set of duplicate wells were added 20 μL of human FGF-1, FGF-2, or FGF-4 (1 μM) with or without premixing with LMWH (˜22 nM or 0.1 μM), monosaccharide, or oligosaccharides (100 μM or 1 mM) and the plate was incubate at r.t. for 1 hr. After washing three times with 1×PBS buffer containing 0.05% Tween-20, anti-human FGF-1, FGF-2 or FGF-4 (20 μL) was added and the plate was incubated at r.t. for 1 hr. After the plate was washed three times with 1×PBS buffer containing 0.05% Tween-20, Alexa Fluor® 488 goat anti-rabbit IgG (H+L) (20 μL) was added and the plate was incubated at r.t. for 1 hr. After washed three times with 1×PBS buffer containing 0.05% Tween-20 and once with water, the fluorescent signals of wells in the plate were measured using a microtiter plate reader.

The target in assay [6] is NahK_ATCC55813 (Bifidobacterium longum subsp. longum, UniProt E8MF12, D7V/R348H). As to the method: (§3) Kinetics by CE assays. Reactions were carried out in duplicate at 37° C. for 10 min in a total volume of 20 μL in Tris-HCl buffer (200 mM, pH 7.5) containing MgCl2 (1 mM), ATP, GlcNAc or GalNAc, and NahK (0.25 μM when GlcNAc and ATP were used as substrates, 0.5 μM when GalNAc and ATP were used as substrates). Apparent kinetic parameters were obtained by varying the ATP concentration from 0.1-5.0 mM (0.1 mM, 0.2 mM, 0.4 mM, 1 mM, 2 mM, and 5 mM) at a fixed concentration of GlcNAc or GalNAc (1 mM), or varying the concentration of GlcNAc or GalNAc (0.1 mM, 0.2 mM, 0.4 mM, 1 mM, 2 mM, and 5 mM) at a fixed concentration of ATP (1 mM) and fitting the data to the Michaelis-Menten equation using Grafit 5.0.
(§4) Capillary electrophoresis (CE) assays. Based on the detection of ADP and ATP in the reaction mixture by a UV detector, a capillary electrophoresis-based method was developed to directly measure the formation of ADP and N-acetylhexosamine-1-phosphate from ATP and N-acetylhexosamine for characterizing the activities of NahKs.

Assay [7] addresses NahK_JCM1217 (Bifidobacterium longum subsp. longum, UniProt E8MF12). To be noted: ATP and GlcNAc as substrates; HPIC with pulsed amperometric detector; cited from earlier work.
The target of assay [8] is T3, human FGF-2 (Homo sapiens, UniProt P09038).
T3 construct: purchased PeproTech Inc (Rocky Hill, N.J.)
Briefly: Inhibition of FGF-2 binding to immobilized heparin-biotin. As to conditions: compound 1 mM; FGF 1 μM.
Excerpt: as §1, §2

Assay [9] addresses T4, human FGF-4 (Homo sapiens, UniProt P08620).
T4 construct: purchased PeproTech Inc (Rocky Hill, N.J.)
T4 sequence (P08620 31-206): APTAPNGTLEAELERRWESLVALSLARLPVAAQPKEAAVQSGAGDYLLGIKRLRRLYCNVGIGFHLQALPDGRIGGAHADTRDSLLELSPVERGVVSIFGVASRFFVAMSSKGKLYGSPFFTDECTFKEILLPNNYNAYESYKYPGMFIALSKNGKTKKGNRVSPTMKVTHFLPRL
Briefly: Inhibition of FGF-4 binding to immobilized heparin-biotin. As to conditions: compound 1 mM; FGF 1 μM.
Excerpt: as §1
as §2, with “After washing three times with 1×PBS buffer containing 0.05% Tween-20, anti-human FGF-1, FGF-2 or FGF-4 (20 μL) was added and the plate was incubated at r.t. for 1 hr. After the plate was washed three times with 1×PBS buffer containing 0.05% Tween-20, Alexa Fluor® 488 goat anti-rabbit IgG (H+L) (20 μL) was added and the plate was incubated at r.t. for 1 hr.” left out

Assay [10] has as its target NahK_ATCC15697 (Bifidobacterium longum, UniProt B7GN78). Briefly: Kinetics by CE assays, NahK_ATCC15697. To be noted: in the presence of ATP. As to the method:
as §3, §4

Setting [11] is: Low enzyme Conc. (412 ng in 20 μL, 15 min, 37° C.).

Usually kcat stands for the maximal rate divided by the concentration of active sites. As usually defined, the Km is the concentration of substrate that gives half-maximal velocity. As a reminder, the inhibition is the drop in the measured response relative to a control, in per cent. A lower inhibition goes with little suppression.

For “Neu5Acα2-6Galβ1-4GlcNAcβ1-3(Neu5Acα2-6)Galβ1-4Glc [DSLNnT]”, in assay [1], the “NEC preventing effect in neonatal rats” value is “protects neonatal rats from necrotizing enterocolitis” and the “mean ileum pathology score (0: healthy; 4: complete destruction)” value is 1.29±0.54.
As to `O=C[C@H](O)[C@@H](O)[C@@H](O)[C@H](O)C(=O)O` [GalA, galacturonic acid], the “substrate for AtGlcAK (formation of sugar-1-phosphate)” value (“substrate for AtGlcAK” below) in [2] is “acceptable substrates”. Moreover, the “Percentage conversion of ATP” value in [3] (High enzyme Conc. (2.1 μg in 20 μL, 60 min, 37° C.)) stood at 15.3%; in assay [3] (setting [11]) it was 6.2%.
`CC(=O)N[C@H]1[C@H](O[C@H]2[C@@H](O)[C@@H](CO)O[C@@H](O[C@@H]([C@H](O)[C@@H](O)C=O)[C@H](O)CO)[C@@H]2O)O[C@H](CO[C@]2(C(=O)O)C[C@H](O)[C@@H](NC(C)=O)[C@H]([C@H](O)[C@H](O)CO)O2)[C@@H](O)[C@@H]1O[C@@H]1O[C@H](CO)[C@H](O)[C@H](O[C@]2(C(=O)O)C[C@H](O)[C@@H](NC(C)=O)[C@H]([C@H](O)[C@H](O)CO)O2)[C@H]1O` [DSLNT, disialyllacto-N-tetraose]: in assay [4], the “NEC preventing effect in neonatal rat model” value is reported as “effective for preventing necrotizing enterocolitis”.
`O=C[C@@H](O)[C@H](O)[C@@H](O)[C@H](O)C(=O)O` [IdoA, iduronic acid]: the “substrate for AtGlcAK” value in [2] is “acceptable substrates”.
Regarding “GlcNAc6N3α1-4GlcAβ1-4GlcNH2α1-4GlcAβ2AA [Compound F24-13]”, in assay [5], the “FGF-1 (% inhibition)” value is listed as 62%.
On to `Nc1ncnc2c1ncn2[C@@H]1O[C@H](COP(=O)(O)OP(=O)(O)OP(=O)(O)O)[C@@H](O)[C@H]1O` [ATP, Adenosine-5′-triphosphate], for which, in [6] (substrates ATP and GlcNAc), the kcat came to 1.3 ± 0.1 s⁻¹. Besides, the Km is 110 ± 30 µM in assay [6] (substrates ATP and GlcNAc, one varied, other fixed at 1 mM, 37° C., 10 min); 172 µM in assay [7].
Regarding “GlcAβ1-4GlcNH2α1-4GlcAβ2AA [Compound F24-11]”, in [5], the “FGF-1 (% inhibition)” value was determined as 76%.
For `CC(=O)N[C@H]1[C@H](O[C@H]2[C@@H](O)[C@@H](CO)O[C@@H](O[C@H]3[C@H](O)[C@@H](O)C(O)O[C@@H]3CO)[C@@H]2O)O[C@H](CO)[C@@H](O[C@@H]2O[C@H](CO)[C@H](O)[C@H](O[C@]3(C(=O)O)C[C@H](O)[C@@H](NC(C)=O)[C@H]([C@H](O)[C@H](O)CO)O3)[C@H]2O)[C@@H]1O` (some centres unmarked) [3′″-sLNnT, Neu5Acα2-3Galβ1-4GlcNAcβ1-3Galβ1-4Glc], in assay [1], the “NEC preventing effect in neonatal rats” value is given as “lacking of NEC preventing effect” and the “mean ileum pathology score (0: healthy; 4: complete destruction)” value turned out to be 2.05±0.55.
With “GlcNAc6NSα1-4GlcAβ1-4GlcNSα1-4GlcAβ2AA [Compound F24-16]”, the “FGF-1 (% inhibition)” value in [5] is recorded as 58%. Moreover, the “FGF-2 (% inhibition)” value in [8] is 55%.
For the molecule `O=C[C@H](O)[C@@H](O)[C@H](O)[C@H](O)C(=O)O` [Compound F24-1, glucuronic acid], in assay [2], the “substrate for AtGlcAK” value is “acceptable substrates”. Further, in [3] (setting [11]), the “Percentage conversion of ATP” value is recorded as 61.5%. The inhibition at 1000 µM in assay [5] amounted to 65%; in assay [8], 68%; in assay [9] it was 54%.
In the case of “GlcNAc6NH2α1-4GlcAβ1-4GlcNSα1-4GlcAβ2AA [Compound F24-15]”, the “FGF-2 (% inhibition)” value in [8] amounted to 68%. Besides, the “FGF-4 (% inhibition)” value in assay [9] worked out at 43%.
Regarding `CC(=O)N[C@H]1C(O)O[C@H](CO)[C@@H](O)[C@@H]1O` (some centres unmarked) [GlcNAc, N-acetylglucosamine], the “efficiency as substrate relative to GalNAc” value in assay [10] is recorded as 3.1 fold; in assay [6] (in the presence of ATP), 2.6 fold. Moreover, the Km in assay [7] was 118 µM.
